Entries after “also recorded” stand apart in the source; their conditions may differ. Where two headings read alike, the source gives them in different places.
How the values were obtained:
[1] = test system: H3K4me2 in HCT116 cells; assay: Histone methylation H3K4me2 by western blot; type: cell-based, human; conditions: HCT116, TCP series conditions (0.2–20 μM)
Method: We next screened 25–33 and SP2509 over a concentration range of 0.1–10 μM in HCT116 cells (obtained from ATCC, CCL-247) and determined LSD1 abundance after 24 hours with an antibody for LSD1 (Fig. S4 ^†). […] Using the same conditions, we also determined the effects of SP2509, 25, 27, 28, 30 and 31 on histone H3 lysine 4 dimethyl (H3K4me2) a validated substrate for LSD1 using a specific antibody for H3K4me2 (Fig. S4 ^†).
Compounds 39–41, 49, 52 and 54 were screened for LSD1 degradation in HCT116 cells using a specific antibody for LSD1. This was performed side-by-side with TCP. Compounds were tested at concentration ranges of 0.2–20 μM and LSD1 abundance was quantified at 24 hours (Fig. S5 ^†). 49, 52 and 54 were also evaluated at 48 and 72 hours. […] We also determined the effects of these compounds on the histone methyl marker H3K4me2 (Fig. S5 and S6 ^†).
(§1) 2.5 Protocols for LSD1 degradation and histone methylation in HCT116 cells HCT116 human colon carcinoma cells were grown in Dulbecco’s Modified Eagle Medium (DMEM) supplemented with Fetal Bovine Serum (FBS, 10% final concentration) and 1x glutamine/penicillin/streptomycin. Cells were incubated at 37 °C and 5% CO2. Cells were treated with compounds (0.1-20 µM) with a final DMSO volume of 0.04%. DMSO (0.04%) treated and untreated (WT) cells were included as controls.
(§2) HCT116 cells were seeded into six well plates (400000 cells per well) and after requisite compound treatment time (24h, 48h, 72h) cells were harvested and either snap-frozen in liquid nitrogen or lysed in lysis buffer (50mM Tris-HCl, 150 mM NaCl, 0.5% NP-40, 0.5% Triton X-100 + protease inhibitor) on ice for 30 mins. This was centrifuged (15000 rpm, 4 °C, 15 mins) and the supernatant collected.
(§3) H2SO4 (0.4 M, equal volume) was added to the pellets for histone extraction and the tubes incubated overnight at 4 °C. Following this, the histone extract was centrifuged (15000 rpm, 4 °C, 15 mins) and the supernatant collected. Protein concentrations of whole cell extract were quantified via Bradford Assay using BIO-RAD Protein Assay Dye Reagent Concentrate.
(§4) Western blots were run on NuPAGE 4-12% Bis-Tris gels, with 30 µg of protein (whole cell extract) or an equivalent volume of histone extract loaded per lane, with all extracts dyed with 4x NuPAGE LDS Sample Buffer. PageRuler Plus Prestained Ladder was used as a reference. Gel electrophoresis was carried out at 140 V for 60-90 mins, following which the proteins were transferred onto nitrocellulose membrane at 30 V for 60 mins. Membranes were blocked in LI-COR Intercept Blocking Buffer overnight at RT on a roller, following which the membrane was probed with primary antibodies for 1 h at RT. The membrane was washed with PBS + 0.1% Tween (3 x 10 mins), then incubated with secondary antibodies for 50 mins at RT. The membrane was washed again (PBS Tween 2 x 10 mins, PBS 1 x 10 mins) following which the blot was visualised with the Odyssey Infrared Imaging System. Image processing and quantification was performed with ImageStudio Lite. […]
(§5) a-tubulin (mouse) – Sigma, t5168 (1:10000 dilution)

[2] = test system: HCT116 cells; assay: CTG cell viability assay; type: cell-based, human; conditions: HCT116, CellTiter-Glo, 0.0041-10 uM, 24-48 h (Fig. S3)
Method: 2.4. CTG cell viability assays
HCT116 cells were seeded onto 96-well plates at a density of 2000 cells/well and allowed 24 h to settle. Cells were then treated with LSD1 inhibitors (0.0041-10 uM) alongside WT, DMSO and cell free control wells for 24-48 h. After this time, plates were equilibrated to RT for 30 mins, then CellTiter-Glo (Promega, G9242) reagent (5 uL/100 uL media) was added. Cells were lysed on an orbital shaker for 10 mins, then incubated at RT for 2 mins to allow luminescence to stabilise, following which luminescence was recorded on a HiDEX Sense microplate reader. To obtained plotted values, luminescence of each tested well was divided by that of the DMSO control, which were plotted against concentration using GraphPad Prism. […] was applied to obtain apparent IC50 values where possible.
Figure S3. Cell viability dose response curves
(1 picture or pasted object on this page, not shown here)

[3] = target: T1, HDAC1-CoREST-LSD1 complex (Homo sapiens, UniProt O60341); assay: LSD1 HRP-coupled demethylase assay, TCP analogues; type: biochemical; conditions: for inhibition at 50 µM: read-out: LSD1 inhibition at 50 μM
T1 construct: full length native LSD1 (UniProt ID: O60341); made in house; host or cells: HEK 293F cells (co-transfection, pcDNA3 vectors)
Method: We then evaluated LSD1 inhibition in the LSD1-HDAC1-CoREST complex using the established horseradish peroxidase (HRP) assay.[8]
2. Supplementary Information: Biology
2.1. LSD-HDAC1-CoREST expression and purification
Lysis Buffer (Buffer A) Wash Buffer (Buffer B)
• 50 mM Tris/Cl pH 7.5 • 50 mM Tris/Cl pH 7.5
• 50 mM Potassium Acetate • 50 mM Potassium Acetate […]
Cleavage Buffer (Buffer C) Gel Filtration Buffer (Buffer D)
• 50 mM Tris/Cl pH 7.5 Filtered at vacuum.
• 50 mM Potassium Acetate • 50 mM Tris/Cl pH 7.5
• 5 % v/v Glycerol • 50 mM Potassium Acetate
• 0.5 mM tris(2- • 0.5 mM TCEP carboxyethyl)phosphine (TCEP)
The CoREST ternary complex was comprised of full length native LSD1 (UniProt ID: O60341), full length HDAC1 (UniProt ID: Q13547) and N-terminally truncated RCOR1 (86-485aa) (UniProt ID:
Q9UKL0). Protein constructs were cloned into pcDNA3 vector. The RCOR1 constructs contained an N-terminal (His)10(Flag)3 tag followed by a Tev protease cleavage site. The constructs for ternary complex were co-transfected into suspension-grow HEK 293F cells (Thermofisher Scientific) with polyethylenimine (PEI) (Sigma) and harvested after 48 hours. This section of the procedure was carried out as described previously in literature.11,12
Cell pellets from 1.2 L culture were defrosted, and buffer A (30 mL) was added. The solution was sonicated (Soniprep 150) in an beaker of ice using a 9 mm probe at 10 ampules; operated with 10 […]
Components and concentrations for the HRP-coupled demethylase assay […]
The assay components are shown at their final concentrations per well in the table above. CoREST complex (HDAC 1/RCOR1/LSD1) was added to the assay buffer alongside either DMSO or the relevant inhibitor at the desired concentration on black-walled 96 well plates. Alongside this was another control, with DMSO but no CoREST or inhibitor. Plates were spun to 3000 rpm between each addition of a reagent. Plates were incubated at 20 °C for 30 mins, following which HRP/Amplex Ultrared (1:1 mixture) and peptide was added. Plates were spun, then read on an PerkinElmer 2030 Explorer plate reader, with excitation of 530 nm and […] of 590 nm, with 7 readings taken over […]
Components, where bought in, are listed below:
HRP – Pierce™ Horseradish Peroxidase, Invitrogen
H3K4me2 peptide – Histone H3 dimethyl lysine-4 peptide, Enzo Life Sciences Amplex UltraRed, ThermoFisher Scientific
To the assay buffer was added HRP/AMP in each well to concentrations equal to those in above, following which hydrogen peroxide solution (diluted from 3% hydrogen peroxide solution into a 20 mM stock) was added, in a 1 in 3 dilution series with final concentrations starting from 3 mM.
Negative control wells contained either 100% buffer or as above with no hydrogen peroxide solution.

[4] = target: T2, LSD1 in HCT116 cells (Homo sapiens, UniProt O60341); assay: LSD1 degradation (LSD1 abundance) by western blot; type: cell-based
T2 construct: host or cells: HCT116
Method: Using the same conditions, we also determined the effects of SP2509, 25, 27, 28, 30 and 31 on histone H3 lysine 4 dimethyl (H3K4me2) a validated substrate for LSD1 using a specific antibody for H3K4me2 (Fig. S4 ^†).
Compounds were tested at concentration ranges of 0.2–20 μM and LSD1 abundance was quantified at 24 hours (Fig. S5 ^†). 49, 52 and 54 were also evaluated at 48 and 72 hours. […] We also determined the effects of these compounds on the histone methyl marker H3K4me2 (Fig. S5 and S6 ^†).
as §1, with “with compounds (0.1-20 µM) with a final DMSO volume of 0.04%. DMSO (0.04%) treated and untreated (WT) cells were included as controls.” left out
untreated (WT) cells were included as controls.
as §2
as §3, with “Concentrate. […]” for “Concentrate.”
as §4, with “or” for “Western blots were run on NuPAGE 4-12% Bis-Tris gels, with 30 µg of protein (whole cell extract) or”
as §5

[5] = test system: LSD1; design: method as in PMID 38742921; conditions: cited from earlier work
[6] = complex 50 nM, mean ± SD from three replicates
[7] = HCT116, 0.2–20 μM, 24 hours, LSD1 antibody

Row | SMILES | H3K4me2 histone methyl marker [1] | cytotoxic effects in cells [2] | inhibition at 50 µM [3] [%] | IC50 [3, 6] [nM] | inhibition at 50 µM ([3]; single concentration 50 μM, complex 50 nM, compared to no compound treatment control) [%] | LSD1 degradation [4, 7] | LSD1 degradation ([4]; HCT116, 48 and 72 hours) | ability to increase H3K4me2 on peptides and nucleosomes [5] | IC50 ([3]; complex 50 nM) [nM]
1 | N[C@H]1CC[C@H](N[C@@H]2C[C@H]2c2ccccc2)CC1 [ORY1001, reference compound] | neither did we observe changes; also recorded: did not increase H3K4me2 levels | not observed | 100 | – | – | – | – | – | –
2 | Cc1ncsc1-c1ccc(CNC(=O)[C@@H]2C[C@@H](O)CN2C(=O)[C@@H](NC(=O)COCCOCCOCCNC(=O)c2ccc([C@@H]3C[C@H]3N)cc2)C(C)(C)C)cc1 [compound 49] | no changes | – | – | 63 | 100 | no degradation | no degradation | – | –
3 | COc1ccc(-c2c(-c3ccc(C#N)c(F)c3)nc(N3CCC(N)CC3)n(C)c2=O)cc1F [CC-90011] | – | – | – | – | – | – | – | increased H3K4me2 levels | –
4 | N[C@@H]1C[C@H]1c1ccc(C(=O)NCCc2ccc(OCCCCCCCCCCCC(=O)NCCNc3cccc4c3C(=O)N(C3CCC(=O)NC3=O)C4=O)cc2)cc1 (some centres unmarked) [compound 54] | no changes | – | – | 282 ± 40 | – | no degradation | no degradation | – | 280
5 | N[C@@H]1C[C@H]1c1ccccc1 (racemic) [TCP, tranylcypromine] | neither did we observe changes; also recorded: did not increase H3K4me2 levels | not observed | – | – | – | – | – | increased H3K4me2 levels | –

From article PMC12323867 (RSC Medicinal Chemistry, 2025)
